Assay results taken from US20070185084A1, “COMPOSITIONS OF AN ANTICONVULSANT AND METHODS OF USING THE SAME FOR REVERSING WEIGHT GAIN” (Orexigen Therapeutics, Inc., priority 2006, published 2007).
Entries after “also recorded” stand apart in the source; their conditions may differ. Like-named read-outs stand apart in the source and are kept apart here.

How the values were obtained:
[1] = Example 11: zonisamide started one week after olanzapine pump implantation in rodent model of olanzapine-induced weight gain; assay type: in vivo, rats
Method: Female Sprague-Dawley rats, weighing about 235 grams at the start of the experiment were used. They were trained to sham injections, using the zonisamide vehicle for 2 weeks before the study commenced. Under isoflurane anesthesia, Alzet osmotic minipumps (2 ml2) were implanted subcutaneously, between the shoulder blades. The rats were subsequently returned to their home cages after recovery. The minipumps delivered 5 μL per hour for 14 days. Olanzapine was dissolved in 1.5% lactic acid in dH2O. Zonisamide was dissolved in 10% DMSO, 13.4% EtOH, 20.1% PPG, and […]. Olanzapine dose was 1.75 mg/day via the minipump. The animals were housed individually and supplied with standard laboratory chow. Food consumed and animal weights were recorded every days. There were 5 animals in the control (vehicle) group, 5 animals in the zonisamide only group, 4 animals in the olanzapine only group, and 6 animals in the olanzapine+zonisamide group.
Rats were allowed to recover after pump implantation, and then received twice daily injections of zonisamide 26 mg/kg. Their food intake and body weight were calculated daily for 15 days.
The protocol used was the same as described in Example 12, with the exception that the treatment with zonisamide began one week after implantation of the olanzapine osmotic pumps, and food intake and body weight were calculated daily for 10 days.

[2] = Example 10: co-treatment with zonisamide in rodent model of olanzapine-induced weight gain (body weight, food intake); assay type: in vivo, Sprague-Dawley rats
Method: Female Sprague-Dawley rats, weighing about 235 grams at the start of the experiment were used. They were trained to sham injections, using the zonisamide vehicle for 2 weeks before the study commenced. Under isoflurane anesthesia, Alzet osmotic minipumps (2 ml2) were implanted subcutaneously, between the shoulder blades. The rats were subsequently returned to their home cages after recovery. The minipumps delivered 5 μL per hour for 14 days. […] The animals were housed individually and supplied with standard laboratory chow. Food consumed and animal weights were recorded every days. […] Rats were allowed to recover after pump implantation, and then received twice daily injections of zonisamide 26 mg/kg.

[3] = cited from earlier work
[4] = Example 12 case study: zonisamide added to clonazepam, fluoxetine and lamotrogine, bipolar patient; assay type: in vivo, human; conditions: zonisamide 100 mg qD added to clonazepam, fluoxetine, lamotrogine; person
Method: A person having biopolar disorder, Type I, had been treated for just over year by their psychiatrist using clonazepam 1 mg qHS, fluoxetine 20 mg qd, and lamotrogine 300 mg qD. One particular complaint was that they had “constant thoughts of eating”. Their psychiatrist started them on zonisamide 100 mg qD. […] The dose was continued and despite multiple stressors at home, they continued to do well on the treatment regimen.

[5] = Example 14 case study: bupropion and zonisamide added to olanzapine and valproate; assay type: in vivo, human
Method: At this point, zonisamide was added to their medication regimen at 100 mg/day and the dose was increased to 200 mg/day after two weeks.

[6] = system: Proopiomelanocortin (POMC) neurons; assay: Electrophysiology: action current frequency of POMC neurons in brain slices, loose cell attached patch; assay type: cell-based, POMC-EGFP mice; conditions: for frequency of action currents (activity) of POMC neurons: zonisamide 10 μM, FIG. 1
Method: The electrophysiological activity of Proopiomelanocortin (POMC) neurons in brain slices from POMC-EGFP mice was recorded. The POMC neurons in these mice are identified by the expression of green fluorescent protein (EGFP) in these, and only these, cells. The frequency of action potentials in these neurons were recorded using standard electrophysiological techniques. In particular, loose cell attached patch configuration is used to determine action current frequency, whilst minimally disturbing the cells.
The basal activity was recorded, and then olanzapine (100 nM) was added to the tissue bath to determine the effect of olanzapine on the activity of POMC neurons. […] Then the effect of zonisamide on the reduction in activity caused by […] was tested by adding olanzapine plus zonisamide (10 μM) to the bath.

[7] = Example 13 case study: zonisamide in patient with weight gain on paroxetine and risperidone; assay type: in vivo, human
Method: They were therefore started on zonisamide 100 mg, increased to 200 mg. […] The dose was then increased to 300 mg and then to 600 mg.

[8] = Day 7.00, rats, zonisamide begun one week after olanzapine pump implantation
[9] = Day 1.00, rats, olanzapine 1.75 mg/day minipump, zonisamide 26 mg/kg twice daily
[10] = zonisamide added to olanzapine, valproate, bupropion

Cc1cc2c(s1)Nc1ccccc1N=C2N1CCN(C)CC1 [Olanzapine, olanzapine]
Cumulative Change in Body Weiglt Post-Pump Implant, Mean [1, 8]: −0.46 | Cumulative Change in Food Intake Post-Pump Implant, Mean [1, 8]: 13.39 | Cumulative Change in Body Weiglt Post-Pump Implant, Mean ([1]; Day 8.00): −11.55 | Cumulative Change in Food Intake Post-Pump Implant, Mean ([1]; Day 8.00): 18.36 | Cumulative Change in Body Weiglt Post-Pump Implant, Mean ([1]; Day 9.00): 4.28 | Cumulative Change in Food Intake Post-Pump Implant, Mean ([1]; Day 9.00): 57.46 | Cumulative Change in Body Weiglt Post-Pump Implant, Mean ([1]; Day 10.00): 11.88 | Cumulative Change in Food Intake Post-Pump Implant, Mean ([1]; Day 10.00): 124.58 | Cumulative Change in Body Weiglt Post-Pump Implant, Mean ([1]; Day 11.00): 13.48 | Cumulative Change in Food Intake Post-Pump Implant, Mean ([1]; Day 11.00): 145.5 | Cumulative Change in Body Weiglt Post-Pump Implant, Mean ([1]; Day 12.00): 11.8 | Cumulative Change in Food Intake Post-Pump Implant, Mean ([1]; Day 12.00): 163.6 | Cumulative Change in Body Weiglt Post-Pump Implant, Mean ([1]; Day 13.00): 15.55 | Cumulative Change in Food Intake Post-Pump Implant, Mean ([1]; Day 13.00): 181.05 | Cumulative Change in Body Weiglt Post-Pump Implant, Mean ([1]; Day 14.00): 20.4 | Cumulative Change in Food Intake Post-Pump Implant, Mean ([1]; Day 14.00): 200.9 | Cumulative Change in Body Weiglt Post-Pump Implant, Mean ([1]; Day 15.00): 17.98 | Cumulative Change in Food Intake Post-Pump Implant, Mean ([1]; Day 15.00): 218.2 | Cumulative Change in Body Weiglt Post-Pump Implant, Mean ([1]; Day 16.00): 21.22 | Cumulative Change in Food Intake Post-Pump Implant, Mean ([1]; Day 16.00): 236.95 | Change in Food Intake Post Pump Implant, Mean [2, 9]: 16.56 | Cumulative Change in Body Weight, Mean [2, 9]: 7.44 | Change in Food Intake Post Pump Implant, Mean ([2]; Day 2.00): 39.82 | Cumulative Change in Body Weight, Mean ([2]; Day 4.00): 21.04 | Change in Food Intake Post Pump Implant, Mean ([2]; Day 5.00): 62.30 | Cumulative Change in Body Weight, Mean ([2]; Day 5.00): 19.22 | Change in Food Intake Post Pump Implant, Mean ([2]; Day 6.00): 86.14 | Cumulative Change in Body Weight, Mean ([2]; Day 6.00): 20.56 | Change in Food Intake Post Pump Implant, Mean ([2]; Day 7.00): 105.74 | Cumulative Change in Body Weight, Mean ([2]; Day 7.00): 30.88 | Change in Food Intake Post Pump Implant, Mean ([2]; Day 8.00): 119.30 | Cumulative Change in Body Weight, Mean ([2]; Day 8.00): 27.56 | Change in Food Intake Post Pump Implant, Mean ([2]; Day 9.00): 144.98 | Cumulative Change in Body Weight, Mean ([2]; Day 9.00): 32.94 | Change in Food Intake Post Pump Implant, Mean ([2]; Day 10.00): 161.16 | Cumulative Change in Body Weight, Mean ([2]; Day 10.00): 34.98 | Change in Food Intake Post Pump Implant, Mean ([2]; Day 11.00): 180.96 | Cumulative Change in Body Weight, Mean ([2]; Day 11.00): 33.40 | Change in Food Intake Post Pump Implant, Mean ([2]; Day 12.00): 201.42 | Cumulative Change in Body Weight, Mean ([2]; Day 12.00): 40.76 | Change in Food Intake Post Pump Implant, Mean ([2]; Day 13.00): 224.38 | Cumulative Change in Body Weight, Mean ([2]; Day 13.00): 38.84 | Change in Food Intake Post Pump Implant, Mean ([2]; Day 14.00): 241.48 | Cumulative Change in Body Weight, Mean ([2]; Day 14.00): 43.28 | Cumulative Change in Body Weight, Mean ([2]; Day 15.00): 41.64

NS(=O)(=O)Cc1noc2ccccc12 [Zonisamide, zonisamide]
weight loss ([3]; patients presenting with primary obesity): significant weight loss | tolerability ([3]; versus placebo treatment): well tolerated | Cumulative Change in Body Weiglt Post-Pump Implant, Mean [1, 8]: −1.73 | Cumulative Change in Food Intake Post-Pump Implant, Mean [1, 8]: 13.15 | Cumulative Change in Body Weiglt Post-Pump Implant, Mean ([1]; Day 8.00): −11.38 | Cumulative Change in Food Intake Post-Pump Implant, Mean ([1]; Day 8.00): 18.62 | Cumulative Change in Body Weiglt Post-Pump Implant, Mean ([1]; Day 9.00): −1.28 | Cumulative Change in Food Intake Post-Pump Implant, Mean ([1]; Day 9.00): 46.87 | Cumulative Change in Body Weiglt Post-Pump Implant, Mean ([1]; Day 10.00): 5.8 | Cumulative Change in Food Intake Post-Pump Implant, Mean ([1]; Day 10.00): 101.08 | Cumulative Change in Body Weiglt Post-Pump Implant, Mean ([1]; Day 11.00): 6.37 | Cumulative Change in Food Intake Post-Pump Implant, Mean ([1]; Day 11.00): 116.93 | Cumulative Change in Body Weiglt Post-Pump Implant, Mean ([1]; Day 12.00): 0.86 | Cumulative Change in Food Intake Post-Pump Implant, Mean ([1]; Day 12.00): 126.64 | Cumulative Change in Body Weiglt Post-Pump Implant, Mean ([1]; Day 13.00): −4.79 | Cumulative Change in Food Intake Post-Pump Implant, Mean ([1]; Day 13.00): 133.95 | Cumulative Change in Body Weiglt Post-Pump Implant, Mean ([1]; Day 14.00): −11.79 | Cumulative Change in Food Intake Post-Pump Implant, Mean ([1]; Day 14.00): 141.09 | Cumulative Change in Body Weiglt Post-Pump Implant, Mean ([1]; Day 15.00): −10.3 | Cumulative Change in Food Intake Post-Pump Implant, Mean ([1]; Day 15.00): 153.61 | Cumulative Change in Body Weiglt Post-Pump Implant, Mean ([1]; Day 16.00): −9.37 | Cumulative Change in Food Intake Post-Pump Implant, Mean ([1]; Day 16.00): 167.93 | effect on olanzapine-induced weight gain ([1]; zonisamide one week after implantation of olanzapine pumps, rats): decrease the weight gain associated with olanzapine; also recorded: reversed olanzapine-induced weight gain | Change in Food Intake Post Pump Implant, Mean [2, 9]: 12.48 | Cumulative Change in Body Weight, Mean [2, 9]: 9.74 | Change in Food Intake Post Pump Implant, Mean ([2]; Day 2.00): 30.10 | Cumulative Change in Body Weight, Mean ([2]; Day 4.00): 20.24 | Change in Food Intake Post Pump Implant, Mean ([2]; Day 5.00): 46.02 | Cumulative Change in Body Weight, Mean ([2]; Day 5.00): 17.60 | Change in Food Intake Post Pump Implant, Mean ([2]; Day 6.00): 58.24 | Cumulative Change in Body Weight, Mean ([2]; Day 6.00): 19.34 | Change in Food Intake Post Pump Implant, Mean ([2]; Day 7.00): 72.10 | Cumulative Change in Body Weight, Mean ([2]; Day 7.00): 20.18 | Change in Food Intake Post Pump Implant, Mean ([2]; Day 8.00): 86.88 | Cumulative Change in Body Weight, Mean ([2]; Day 8.00): 17.32 | Change in Food Intake Post Pump Implant, Mean ([2]; Day 9.00): 104.86 | Cumulative Change in Body Weight, Mean ([2]; Day 9.00): 13.66 | Change in Food Intake Post Pump Implant, Mean ([2]; Day 10.00): 123.66 | Cumulative Change in Body Weight, Mean ([2]; Day 10.00): 14.62 | Change in Food Intake Post Pump Implant, Mean ([2]; Day 11.00): 140.40 | Cumulative Change in Body Weight, Mean ([2]; Day 11.00): 16.46 | Change in Food Intake Post Pump Implant, Mean ([2]; Day 12.00): 160.36 | Cumulative Change in Body Weight, Mean ([2]; Day 12.00): 21.08 | Change in Food Intake Post Pump Implant, Mean ([2]; Day 13.00): 177.70 | Cumulative Change in Body Weight, Mean ([2]; Day 13.00): 24.26 | Change in Food Intake Post Pump Implant, Mean ([2]; Day 14.00): 186.25 | Cumulative Change in Body Weight, Mean ([2]; Day 14.00): 27.52 | Cumulative Change in Body Weight, Mean ([2]; Day 15.00): 25.70 | effect on the weight gain associated with olanzapine ([2]; zonisamide added to concomitant olanzapine treatment, rats): decrease the weight gain associated with olanzapine | craving for food [4]: significantly reduced their craving for food | weight gain [4]: prevented weight gain | weight lost ([5]; zonisamide 100 mg/day, 200 mg/day after two weeks, added to regimen, over the next 4 months): 15 lbs | adverse effects reported [5, 10]: no adverse effects | bipolar disorder symptoms [5, 10]: remained free of bipolar disorder symptoms | activity of POMC neurons inhibited by olanzapine ([6]; olanzapine plus zonisamide (10 μM) in the bath, FIG. 3): reversed the inhibition of POMC neurons | frequency of action currents (activity) of POMC neurons [6]: reversibly increased the activity of POMC neurons | frequency of action currents (activity) of POMC neurons ([6]; listed as zonisamide): increases the activity of POMC neurons | psychiatric symptoms ([7]; on zonisamide): improved | weight lost ([7]; zonisamide 100 mg, increased to 200 mg, in 3 weeks): 12 pounds | weight ([7]; zonisamide increased to 300 mg and then 600 mg, in 5 months): returned to baseline

CC(NC(C)(C)C)C(=O)c1cccc(Cl)c1 (stereo not shown) [bupropion]
weight lost ([5]; bupropion 150 mg/day added to olanzapine and valproate, after 6 months): 23.6 lbs | adverse effect reported ([5]; bupropion dose raised to 300 mg/day): feeling hyperactive | weight regained ([5]; while continuing bupropion, over the next 10 months): 10.6 lbs | weight loss ([7]; trial of bupropion alone): did not cause significant weight loss
